Experimental data from US8853276B2, “Guanidine derivatives in cinnamic series” (Produits Chimiques Auxiliaires et de Synthese, priority 2010, dated 2014).

System: fibrillin-1
Assay: Anti-glycation study on skin explants: fibrillin-1 immunolabeling with image analysis
Assay type: cell-based, human
Settings: for Fibrillin-1 (% of surface area under the dermo-epidermal junction), Mean: topical 2 mg per explant on D0, D3, D5, D7, aminoguanidine at 0.15%, compound 29 at 1%
Description: The anti-aging properties of a derivative according to the invention were evaluated by performing a comparative study of the anti-glycation activity of several compounds.
From an arm of a person, 21 explants (about 10 mm in diameter) were prepared and placed under survival conditions in BEM specific medium (BIO-EC's Explants Medium).
The explants were divided into seven batches of three explants:
Methylglyoxal was incorporated into the survival medium on D3, D5 and D7.
Compound 29 and the reference, aminoguanidine, were applied topically at a rate of 2 mg per explant on D0, D3, D5 and D7.
The controls (batches T0 and T) received no treatment.
On D0, the three explants of batch T0 were sampled and divided into two. One half was fixed with buffered formaldehyde and the other half was frozen at −80° C. On D9, three explants from each batch were sampled and treated in the same manner.
After 24 hours of fixing in the buffered formaldehyde, the samples were dehydrated and impregnated with paraffin using a Leica 1020 dehydration robot. They were embedded using a Leica EG 1160 coating station. 5 μm slices were produced using a Minot Leica RM 2125 microtome and bonded to Superfrost® histological glass slides.
The nuclei were stained with propidium iodide. The labeling was quantified by image analysis measurements with the Q-WIN Leica system.

[1] = D9 with methylglyoxal, relative to the control batch T without methylglyoxal
[2] = D9 with methylglyoxal (in survival medium D3, D5, D7)

Compound	decrease in the percentage of surface area occupied by fibrillin-1 under the dermo-epidermal junction [1] [%]	Fibrillin-1 (% of surface area under the dermo-epidermal junction), Mean [2] [%]	increase in the percentage of surface area occupied by fibrillin-1 under the dermo-epidermal junction [1] [%]	Fibrillin-1 (% of surface area under the dermo-epidermal junction), Mean (D9 without methylglyoxal) [%]	reduction of the methylglyoxal-induced decrease in the expression of fibrillin-1 (D9, treatment in the presence of methylglyoxal) [%]	expression of fibrillin-1 (labeling, observation) (D9 in the presence of methylglyoxal, compared with control batch T MG)
CC(=O)C=O [methylglyoxal, Methylglyoxal]	23					
COc1cc(/C=C/C(=O)NNC(=N)N)ccc1O [Compound 29, imino{2-[(2E)-3-(4-hydroxy-3-methoxyphenyl)prop-2-enoyl]hydrazino}methanaminium nitrate]		27.7	17	21.53		
N=C(N)NN [aminoguanidine, Aminoguanidine]	12	21.0		28.3	49	very sharp and greater than that observed on the control batch T MG with methylglyoxal
